This passage reports IC50 results from patent publication US9056843B2, “Trifluoromethyl-oxadiazole derivatives and their use in the treatment of disease” (NOVARTIS AG, priority 2011, dated 2015).

What all share (assay type): biochemical
Experiment [1] addresses Human recombinant HDAC4 (Homo sapiens (Human), UniProt P56524). Kind of experiment: Test 2: HDAC4 assay (fluorogenic substrate, 5 μM acetyl-Gly-Ala-Lys(ε-trifluoroacetyl)-AMC). The note with it: Test 2 (values without asterisk). An outline of the steps:
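After the reaction, bovine trypsin (300 nM solution) was added for 15 min at RT to develop the signal; fluorescence read at 360/450 nm. No-enzyme background subtracted; IC50 from 4-parameter logistic fit of dose-response curves.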

The target in experiment [2] is Human recombinant full length HDAC6 (Homo sapiens (Human), UniProt Q9UBN7). Put plainly: Test 4: HDAC6 assay. The note with it: Test 4; substrate 5 μM acetyl-Gly-Ala-Lys(acetyl)-AMC. An outline of the steps:
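Baculovirus-expressed full-length recombinant human HDAC6 with 5 μM acetyl-Gly-Ala-Lys(acetyl)-AMC substrate, developed with trypsin 15 min at room temperature.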

Experiment [3] concerns the target Human recombinant full length HDAC1 (Homo sapiens (Human), UniProt Q13547). Put plainly: Test 3: HDAC1 assay. The note with it: substrate 5 μM acetyl-Gly-Ala-Lys(acetyl)-AMC. An outline of the steps:
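Baculovirus-expressed full-length human HDAC1 with 5 μM acetyl-Gly-Ala-Lys(acetyl)-AMC substrate, developed with trypsin 15 min at room temperature.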

Human recombinant full length HDAC1, sequence (Q13547 whole entry): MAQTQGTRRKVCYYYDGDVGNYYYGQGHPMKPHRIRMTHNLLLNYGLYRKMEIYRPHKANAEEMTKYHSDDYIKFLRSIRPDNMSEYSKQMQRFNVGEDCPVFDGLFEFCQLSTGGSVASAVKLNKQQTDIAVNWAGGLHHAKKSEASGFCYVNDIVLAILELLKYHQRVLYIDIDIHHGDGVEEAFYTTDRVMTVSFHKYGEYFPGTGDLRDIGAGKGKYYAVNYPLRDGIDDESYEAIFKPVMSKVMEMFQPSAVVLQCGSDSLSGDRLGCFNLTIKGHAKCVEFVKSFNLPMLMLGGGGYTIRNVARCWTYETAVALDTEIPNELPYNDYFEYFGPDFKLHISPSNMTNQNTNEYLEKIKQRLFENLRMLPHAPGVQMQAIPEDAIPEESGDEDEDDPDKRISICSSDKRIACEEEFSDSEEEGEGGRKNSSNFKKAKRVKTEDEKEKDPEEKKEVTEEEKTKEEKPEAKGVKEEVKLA
Human recombinant HDAC4, sequence (P56524 2-1084): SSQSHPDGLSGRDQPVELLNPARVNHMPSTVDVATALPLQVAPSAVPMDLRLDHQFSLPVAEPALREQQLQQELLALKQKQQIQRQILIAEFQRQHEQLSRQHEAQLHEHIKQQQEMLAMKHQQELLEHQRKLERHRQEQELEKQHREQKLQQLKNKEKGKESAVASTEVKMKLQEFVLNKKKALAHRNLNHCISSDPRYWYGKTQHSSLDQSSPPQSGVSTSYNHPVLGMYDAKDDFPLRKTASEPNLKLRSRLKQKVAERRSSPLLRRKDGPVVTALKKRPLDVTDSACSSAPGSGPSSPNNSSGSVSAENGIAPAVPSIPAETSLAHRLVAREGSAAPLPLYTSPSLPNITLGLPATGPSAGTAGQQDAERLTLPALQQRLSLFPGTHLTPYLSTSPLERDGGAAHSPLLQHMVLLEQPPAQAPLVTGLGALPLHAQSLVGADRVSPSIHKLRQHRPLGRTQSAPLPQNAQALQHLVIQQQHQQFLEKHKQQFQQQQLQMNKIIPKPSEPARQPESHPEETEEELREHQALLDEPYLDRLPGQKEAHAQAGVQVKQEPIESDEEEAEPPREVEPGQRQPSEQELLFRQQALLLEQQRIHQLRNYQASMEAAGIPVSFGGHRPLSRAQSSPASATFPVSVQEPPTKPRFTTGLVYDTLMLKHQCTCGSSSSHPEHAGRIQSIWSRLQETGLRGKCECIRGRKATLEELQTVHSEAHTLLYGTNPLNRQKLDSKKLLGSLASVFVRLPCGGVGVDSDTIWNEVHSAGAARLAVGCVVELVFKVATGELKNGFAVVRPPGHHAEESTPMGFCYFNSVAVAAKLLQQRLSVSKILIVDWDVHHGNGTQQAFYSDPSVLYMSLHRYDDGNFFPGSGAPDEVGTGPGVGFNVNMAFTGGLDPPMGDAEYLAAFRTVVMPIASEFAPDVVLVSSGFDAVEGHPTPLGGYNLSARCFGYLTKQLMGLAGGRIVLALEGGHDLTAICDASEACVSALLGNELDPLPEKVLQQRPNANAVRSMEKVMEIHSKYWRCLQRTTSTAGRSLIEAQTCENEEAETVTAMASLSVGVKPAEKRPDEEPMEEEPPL
Human recombinant full length HDAC6, sequence (Q9UBN7 whole entry): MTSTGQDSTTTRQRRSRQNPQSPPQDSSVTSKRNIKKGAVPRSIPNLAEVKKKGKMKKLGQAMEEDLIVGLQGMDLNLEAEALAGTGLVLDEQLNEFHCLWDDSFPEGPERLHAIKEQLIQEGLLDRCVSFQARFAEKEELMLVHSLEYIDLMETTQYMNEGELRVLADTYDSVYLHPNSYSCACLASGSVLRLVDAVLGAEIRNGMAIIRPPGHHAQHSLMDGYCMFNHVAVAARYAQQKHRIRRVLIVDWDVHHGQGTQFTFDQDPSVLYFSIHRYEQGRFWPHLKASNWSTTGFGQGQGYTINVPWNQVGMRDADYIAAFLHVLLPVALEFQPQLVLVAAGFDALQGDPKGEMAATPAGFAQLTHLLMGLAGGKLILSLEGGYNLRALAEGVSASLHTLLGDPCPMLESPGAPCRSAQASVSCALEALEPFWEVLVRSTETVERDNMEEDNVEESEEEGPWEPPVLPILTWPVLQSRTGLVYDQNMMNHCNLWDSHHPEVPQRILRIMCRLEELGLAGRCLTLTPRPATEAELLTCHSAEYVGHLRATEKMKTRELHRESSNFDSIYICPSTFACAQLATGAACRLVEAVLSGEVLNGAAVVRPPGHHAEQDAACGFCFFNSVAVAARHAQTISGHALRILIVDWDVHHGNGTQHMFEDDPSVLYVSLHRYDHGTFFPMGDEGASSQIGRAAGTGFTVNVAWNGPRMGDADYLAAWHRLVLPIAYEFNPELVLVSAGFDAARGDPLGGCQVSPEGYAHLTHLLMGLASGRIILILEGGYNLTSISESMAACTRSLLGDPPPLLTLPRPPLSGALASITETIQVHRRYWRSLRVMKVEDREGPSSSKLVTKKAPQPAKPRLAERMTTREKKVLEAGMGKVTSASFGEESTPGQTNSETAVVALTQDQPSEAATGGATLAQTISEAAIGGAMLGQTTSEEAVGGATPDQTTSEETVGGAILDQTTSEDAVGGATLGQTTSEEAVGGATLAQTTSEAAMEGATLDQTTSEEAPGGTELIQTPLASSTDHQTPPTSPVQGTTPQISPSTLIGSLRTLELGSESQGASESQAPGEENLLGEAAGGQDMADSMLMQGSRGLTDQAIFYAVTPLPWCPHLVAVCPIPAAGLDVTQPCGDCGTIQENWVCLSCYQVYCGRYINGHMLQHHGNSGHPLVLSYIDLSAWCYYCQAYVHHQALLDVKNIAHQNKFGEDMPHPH

As to `C[C@H](CN1CCOCC1)NC(=O)c1ccc(-c2noc(C(F)(F)F)n2)cc1F` [Example 148, (R)-2-fluoro-N-(1-morpholinopropan-2-yl)-4-(5-(trifluoromethyl)-1,2,4-oxadiazol-3-yl)benzamide], the IC50 is 0.38 µM in experiment [1], 3.2 µM in experiment [2] and over 10 µM in experiment [3].
As to `CN(C)C[C@@H](Cc1ccccc1)NC(=O)c1ccc(-c2noc(C(F)(F)F)n2)cc1` [Example 92, (R)—N-(1-(dimethylamino)-3-phenylpropan-2-yl)-4-(5-(trifluoromethyl)-1,2,4-oxadiazol-3-yl)benzamide], the IC50 in experiment [1] was 0.085 µM; in experiment [2], 4 µM; in experiment [3], over 6.8 µM.
With `CC(C)N(C)C[C@@H](C)NC(=O)c1ccc(-c2noc(C(F)(F)F)n2)cc1` [Example 138, (R)—N-(1-(isopropyl(methyl)amino)propan-2-yl)-4-(5-(trifluoromethyl)-1,2,4-oxadiazol-3-yl)benzamide], the IC50 in experiment [1] was 0.0045 µM; in experiment [2], over 10 µM; in experiment [3], over 10 µM.
`CCN(CC)C[C@H](C)NC(=O)c1ccc(-c2noc(C(F)(F)F)n2)cc1F` [Example 127, (S)—N-(1-(diethylamino)propan-2-yl)-2-fluoro-4-(5-(trifluoromethyl)-1,2,4-oxadiazol-3-yl)benzamide]: the IC50 in experiment [1] was 0.044 µM; in experiment [2], over 10 µM; in experiment [3], over 10 µM.
Regarding `CN(C)C[C@H](Cc1ccccc1)NC(=O)c1ccc(-c2noc(C(F)(F)F)n2)cc1` [Example 93, (S)—N-(1-(dimethylamino)-3-phenylpropan-2-yl)-4-(5-(trifluoromethyl)-1,2,4-oxadiazol-3-yl)benzamide], the IC50 was 0.19 µM in experiment [1], 4.9 µM in experiment [2] and over 10 µM in experiment [3].
The matching figures for `CN(C)CCNC(=O)c1ccc(-c2noc(C(F)(F)F)n2)cc1` [Example 31, N-(2-(dimethylamino)ethyl)-4-(5-(trifluoromethyl)-1,2,4-oxadiazol-3-yl)benzamide]: 0.08 µM, 7.05 µM and 7.6 µM.
For `CN1CCC(CNC(=O)c2ccc(-c3noc(C(F)(F)F)n3)cc2)CC1` [Example 49, N-((1-methylpiperidin-4-yl)methyl)-4-(5-(trifluoromethyl)-1,2,4-oxadiazol-3-yl)benzamide], the IC50 in experiment [1] was 0.99 µM; in experiment [2] it was over 10 µM; in experiment [3] it was over 10 µM.
Consider `COCCCNC(=O)c1ccc(-c2noc(C(F)(F)F)n2)cc1` [Example 21, N-(3-methoxyypropyl)-4-(5-(trifluoromethyl)-1,2,4-oxadiazol-3-yl)benzamide], for which the results for the IC50 in experiment [1], in experiment [2] and in experiment [3] were 0.73 µM, 5.7 µM and over 10 µM, respectively.
The matching figures for `C[C@H](CN(C)C)NC(=O)c1ccc(-c2noc(C(F)(F)F)n2)cc1` [Example 81, (R)—N-(1-(dimethylamino)propan-2-yl)-4-(5-(trifluoromethyl)-1,2,4-oxadiazol-3-yl)benzamide]: 0.034 µM, over 10 µM and over 10 µM.
On to `CN(C)C(=O)Cc1ccc(-c2noc(C(F)(F)F)n2)cc1` [Example 4, N,N-Dimethyl-2-[4-(5-trifluoromethyl-[1,2,4]oxadiazol-3-yl)-phenyl]-acetamide], for which the IC50 was 0.62 µM in experiment [1], 7.9 µM in experiment [2] and over 10 µM in experiment [3].
Take `O=S(=O)(Nc1ccc(Cl)cc1)c1ccc(-c2noc(C(F)(F)F)n2)cc1` [Example 110, N-(4-chlorophenyl)-4-(5-(trifluoromethyl)-1,2,4-oxadiazol-3-yl)benzenesulfonamide]: the IC50 is 0.2 µM in experiment [1], 2 µM in experiment [2] and over 10 µM in experiment [3].
With `CN1C(C)(C)CC(NC(=O)c2ccc(-c3noc(C(F)(F)F)n3)cc2)CC1(C)C` [Example 65, N-(1,2,2,6,6-pentamethylpiperidin-4-yl)-4-(5-(trifluoromethyl)-1,2,4-oxadiazol-3-yl)benzamide], the IC50 in experiment [1] is 0.24 µM; in experiment [2] it was 4.6 µM; in experiment [3] it was over 10 µM.
The matching figures for `O=S(=O)(NCCCO)c1ccc(-c2noc(C(F)(F)F)n2)cc1` [Example 116, N-(3-hydroxypropyl)-4-(5-(trifluoromethyl)-1,2,4-oxadiazol-3-yl)benzenesulfonamide]: 0.16 µM, 3.1 µM and over 10 µM.
On the same counts, the results for `CN1CCN(C(=O)Cc2ccc(-c3noc(C(F)(F)F)n3)cc2)CC1` [Example 10, 1-(4-methylpiperazin-1-yl)-2-(4-(5-(trifluoromethyl)-1,2,4-oxadiazol-3-yl)phenvyl)ethanone] are 1.3 µM, 5.6 µM and over 10 µM.
As to `CN(C)C[C@H](Cc1ccccc1)NC(=O)c1ccc(-c2noc(C(F)(F)F)n2)cc1F` [Example 117, (S)—N-(1-(dimethylamino)-3-phenylpropan-2-yl)-2-fluoro-4-(5-(trifluoromethyl)-1,2,4-oxadiazol-3-yl)benzamide], the IC50 in experiment [1] worked out at 0.11 µM; in experiment [2], 1.5 µM; in experiment [3] it was 6.7 µM.
Consider `CC(C)(C)OC(=O)N1CCC(NC(=O)c2ccc(-c3noc(C(F)(F)F)n3)cc2)C1` (stereo not drawn) [Example 66, Tert-butyl 3-(4-(5-(trifluoromethyl)-1,2,4-oxadiazol-3-yl)benzamido)pyrrolidine-1-carboxylate], for which the IC50 in experiment [1] was 0.33 µM; in experiment [2], 5.8 µM; in experiment [3], over 10 µM.
As for `CC(=O)N1CCC(NC(=O)c2ccc(-c3noc(C(F)(F)F)n3)cc2)CC1` [Example 64, N-(1-acetylpiperidin-4-yl)-4-(5-(trifluoromethyl)-1,2,4-oxadiazol-3-yl)benzamide], the IC50 in experiment [1] was 0.51 µM; in experiment [2], over 10 µM; in experiment [3] it was over 10 µM.
Consider `CC(CO)NC(=O)c1ccc(-c2noc(C(F)(F)F)n2)cc1F` (stereo not drawn) [Example 91, 2-fluoro-N-(1-hydroxyypropan-2-yl)-4-(5-(trifluoromethyl)-1,2,4-oxadiazol-3-yl)benzamide], for which the IC50 in experiment [1] was 0.5 µM; in experiment [2], 5.1 µM; in experiment [3], over 10 µM.
With `Cc1cc(NC(=O)c2ccc(-c3noc(C(F)(F)F)n3)cc2)cc(C)n1` [Example 68, N-(2,6-dimethylpyridin-4-yl)-4-(5-(trifluoromethyl)-1,2,4-oxadiazol-3-yl)benzamide], the IC50 is 0.17 µM in experiment [1], 5.3 µM in experiment [2] and over 10 µM in experiment [3].
Take `O=C(c1ccc(-c2noc(C(F)(F)F)n2)cc1)N1CCN(c2ccccc2)CC1` [Example 42, (4-phenylpiperazin-1-yl)(4-(5-(trifluoromethyl)-1,2,4-oxadiazol-3-yl)phenyl)methanone]: the IC50 in experiment [1] is 4.2 µM; in experiment [2], over 10 µM; in experiment [3], over 10 µM.
In the case of `O=C(NC1CCCNC1)c1ccc(-c2noc(C(F)(F)F)n2)cc1` (stereo not drawn) [Example 79, N-(piperidin-3-yl)-4-(5-(trifluoromethyl)-1,2,4-oxadiazol-3-yl)benzamide], the IC50 is 0.8 µM in experiment [1], over 10 µM in experiment [2] and over 10 µM in experiment [3].
In the case of `O=C(NC1CCCC1)c1ccc(-c2noc(C(F)(F)F)n2)cc1` [Example 29, N-cyclopentyl-4-(5-(trifluoromethyl)-1,2,4-oxadiazol-3-yl)benzamide], the IC50 in experiment [1] was 1.2 µM; in experiment [2], over 10 µM; in experiment [3], over 10 µM.
In the case of `O=C(Nc1ccnc(Cl)c1)c1ccc(-c2noc(C(F)(F)F)n2)cc1` [Example 75, N-(2-chloropyridin-4-yl)-4-(5-(trifluoromethyl)-1,2,4-oxadiazol-3-yl)benzamide], the IC50 in experiment [1] was 0.16 µM; in experiment [2], over 10 µM; in experiment [3], over 10 µM.
Regarding `CC(C)[C@@H](CN(C)C)NC(=O)c1ccc(-c2noc(C(F)(F)F)n2)cc1` [Example 83, (S)—N-(1-(dimethylamino)-3-methylbutan-2-yl)-4-(5-(trifluoromethyl)-1,2,4-oxadiazol-3-yl)benzamide], the figures for the IC50 in experiment [1], in experiment [2] and in experiment [3] were 0.015 µM, over 10 µM and over 10 µM, respectively.
With `CC(CNC(=O)c1ccc(-c2noc(C(F)(F)F)n2)cc1)N(C)C` (stereo not drawn) [Example 51, N-(2-(dimethylamino)propyl)-4-(5-(trifluoromethyl)-1,2,4-oxadiazol-3-yl)benzamide], the IC50 in experiment [1] was 0.09 µM; in experiment [2], 10 µM; in experiment [3], over 10 µM.
Regarding `CC(C)CNC(=O)c1ccc(-c2noc(C(F)(F)F)n2)cc1` [Example 27, N-isobutyl-4-(5-(trifluoromethyl)-1,2,4-oxadiazol-3-yl)benzamide], the values for the IC50 in experiment [1], in experiment [2] and in experiment [3] were 1.2 µM, over 10 µM and over 10 µM, respectively.
In the case of `CNC(=O)c1ccc(-c2noc(C(F)(F)F)n2)cc1` [Example 2, N-Methyl-4-(5-(trifluoromethyl)-1,2,4-oxadiazol-3-yl)benzamide], the IC50 in experiment [1] is 0.53 µM; in experiment [2] it was 3.2 µM; in experiment [3] it was over 10 µM.
Turning to `CON(C)C(=O)Cc1ccc(-c2noc(C(F)(F)F)n2)cc1` [Example 11, N-methoxy-N-methyl-2-(4-(5-(trifluoromethyl)-1,2,4-oxadiazol-3-yl)phenvyl)acetamide], the IC50 was 1.1 µM in experiment [1], 8.9 µM in experiment [2] and over 10 µM in experiment [3].
